Test results reported in PubChem BioAssay AID192 (DTP/NCI, 2004).
Several values for one entry are separate records, joined by “and”; a condition that tells them apart may be missing. Equal entries are not always repeated. Toxic doses and inconclusive results are not listed. How the source made its calls: active means survival T/C of 150% or more; inactive means T/C below 125% in these data.

System: BDF1 mice, B16 melanoma ip, median survival T/C
Assay: NCI In Vivo Anticancer Drug Screen. Data for tumor model B16 Melanoma (intraperitoneal) in B6D2F1 (BDF1) mice
Conditions: endpoint: median survival time, higher = longer survival
Procedure, shortened: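 Each result divides a survival or tumor-size measurement in the compound-treated group by the same measurement in the vehicle group.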

[1] = dose: 25.0 mg/kg/injection, schedule: Q01DX009 (ip), vehicle: saline with Tween-80
[2] = dose: 50.0 mg/kg/injection, schedule: Q01DX009 (ip), vehicle: saline with Tween-80
[3] = dose: 100.0 mg/kg/injection, schedule: Q01DX009 (ip), vehicle: saline with Tween-80
[4] = dose: 400.0 mg/kg/injection, schedule: Q01DX009 (ip), vehicle: saline with Tween-80
[5] = dose: 25.0 mg/kg/injection, schedule: Q04DX003 (ip), vehicle: Klucel (hydroxypropylcellulose) (HPC)
[6] = dose: 100.0 mg/kg/injection, schedule: Q04DX003 (ip), vehicle: Klucel (hydroxypropylcellulose) (HPC)
[7] = dose: 200.0 mg/kg/injection, schedule: Q04DX003 (ip), vehicle: Klucel (hydroxypropylcellulose) (HPC)
[8] = dose: 200.0 mg/kg/injection, schedule: Q01DX009 (ip), vehicle: saline with Tween-80
[9] = dose: 6.25 mg/kg/injection, schedule: Q01DX009 (ip), vehicle: saline with Tween-80
[10] = dose: 12.5 mg/kg/injection, schedule: Q01DX009 (ip), vehicle: saline with Tween-80
[11] = dose: 100.0 mg/kg/injection, schedule: Q01DX009 (ip), vehicle: Klucel (hydroxypropylcellulose) (HPC)
[12] = dose: 200.0 mg/kg/injection, schedule: Q01DX009 (ip), vehicle: Klucel (hydroxypropylcellulose) (HPC)
[13] = dose: 50.0 mg/kg/injection, schedule: Q01DX009 (ip), vehicle: Klucel (hydroxypropylcellulose) (HPC)
[14] = dose: 25.0 mg/kg/injection, schedule: Q01DX009 (ip), vehicle: Klucel (hydroxypropylcellulose) (HPC)
[15] = dose: 12.5 mg/kg/injection, schedule: Q01DX009 (ip), vehicle: Klucel (hydroxypropylcellulose) (HPC)

Measured: T/C

C#CC(C)OCC1CNC(=S)O1 (configuration not stated)
inactive: [1] 100 % of control | [2] 89 % of control | [3] 97 % of control | [4] 91 % of control

CNCC(O)c1cccc(O)c1 (configuration not stated)
inactive: dose: 1.56 mg/kg/injection, schedule: Q01DX009 (ip), vehicle: saline 111 % of control | dose: 3.12 mg/kg/injection, schedule: Q01DX009 (ip), vehicle: saline 117 % of control | dose: 12.5 mg/kg/injection, schedule: Q01DX009 (ip), vehicle: saline 108 % of control | dose: 25.0 mg/kg/injection, schedule: Q01DX009 (ip), vehicle: saline 105 % of control | dose: 50.0 mg/kg/injection, schedule: Q01DX009 (ip), vehicle: saline 95 % of control

CN(C)C(=S)S/C=C\C(=O)O
inactive: [5] 104 % of control | dose: 50.0 mg/kg/injection, schedule: Q04DX003 (ip), vehicle: Klucel (hydroxypropylcellulose) (HPC) 96 % of control | [6] 92 % of control | [7] 113 % of control

CSCCC(NC(=O)CN(C)C(=O)OCc1ccccc1)C(=O)O (configuration not stated)
inactive: [2] 100 % of control | [3] 100 % of control

O=C(O)CCN1C(=O)c2ccccc2C1=O
inactive: [2] 102 % of control | [3] 95 % of control | [8] 90 % of control

CCN1C(=O)CN(CCN2CC(=O)N(c3ccccc3)C2=S)C1=S
inactive: dose: 18.75 mg/kg/injection, schedule: Q01DX009 (ip), vehicle: saline with Tween-80 112 % of control | dose: 37.5 mg/kg/injection, schedule: Q01DX009 (ip), vehicle: saline with Tween-80 120 % of control

C=C1CCN(c2ccc(C)cc2)C1=O
inactive: dose: 4.0 mg/kg/injection, schedule: Q01DX009 (ip), vehicle: saline + alcohol 91 % of control | dose: 8.0 mg/kg/injection, schedule: Q01DX009 (ip), vehicle: saline + alcohol 88 % of control | dose: 16.0 mg/kg/injection, schedule: Q01DX009 (ip), vehicle: saline + alcohol 94 % of control | dose: 32.0 mg/kg/injection, schedule: Q01DX009 (ip), vehicle: saline + alcohol 89 % of control | dose: 64.0 mg/kg/injection, schedule: Q01DX009 (ip), vehicle: saline + alcohol 104 % of control

COC1/C=C\C=C(/C)C(=O)NC2=CC(=O)C(N)=C(CC(C)CC(OC)C(O)C(C)C=C(C)C1OC(N)=O)C2=O (configuration not stated)
inactive: dose: 0.75 mg/kg/injection, schedule: Q01DX009 (ip), vehicle: saline with Tween-80 117 % of control

c1ccc(CN=C(c2ccccc2)c2ccccc2)cc1
inactive: [6] 100 % of control | [7] 95 % of control | dose: 400.0 mg/kg/injection, schedule: Q04DX003 (ip), vehicle: Klucel (hydroxypropylcellulose) (HPC) 100 % of control

NC(=O)Oc1cccc(OC(N)=O)c1
inactive: dose: 12.5 mg/kg/injection, schedule: Q01DX009 (ip), vehicle: water 89 % of control | dose: 25.0 mg/kg/injection, schedule: Q01DX009 (ip), vehicle: water 94 % of control | dose: 50.0 mg/kg/injection, schedule: Q01DX009 (ip), vehicle: water 93 % of control | dose: 100.0 mg/kg/injection, schedule: Q01DX009 (ip), vehicle: water 105 % of control | dose: 200.0 mg/kg/injection, schedule: Q01DX009 (ip), vehicle: water 93 % of control | dose: 400.0 mg/kg/injection, schedule: Q01DX009 (ip), vehicle: water 107 % of control

CC(=O)Oc1cc2c3c(c1)CCCN3CCC2
inactive: dose: 3.13 mg/kg/injection, schedule: Q01DX009 (ip), vehicle: saline with Tween-80 90 % of control | [9] 90 % of control | dose: 15.0 micrograms/kg/injection, schedule: Q01DX009 (ip), vehicle: saline 104 % of control | dose: 30.0 micrograms/kg/injection, schedule: Q01DX009 (ip), vehicle: saline 97 % of control | dose: 60.0 micrograms/kg/injection, schedule: Q01DX009 (ip), vehicle: saline 93 % of control | dose: 250.0 micrograms/kg/injection, schedule: Q01DX009 (ip), vehicle: saline with Tween-80 86 % of control | dose: 500.0 micrograms/kg/injection, schedule: Q01DX009 (ip), vehicle: saline with Tween-80 86 % of control

NCC(=O)c1ccc(O)c(O)c1
inactive: dose: 100.0 mg/kg/injection, schedule: Q01DX009 (ip), vehicle: saline 100 % of control | dose: 200.0 mg/kg/injection, schedule: Q01DX009 (ip), vehicle: saline 110 % of control | dose: 400.0 mg/kg/injection, schedule: Q01DX009 (ip), vehicle: saline 120 % of control

CCCCCCCCC(=O)CCCCC
inactive: dose: 75.0 mg/kg/injection, schedule: Q01DX009 (ip), vehicle: Klucel (hydroxypropylcellulose) (HPC) 104 % of control | dose: 150.0 mg/kg/injection, schedule: Q01DX009 (ip), vehicle: Klucel (hydroxypropylcellulose) (HPC) 103 % of control | dose: 300.0 mg/kg/injection, schedule: Q01DX009 (ip), vehicle: Klucel (hydroxypropylcellulose) (HPC) 103 % of control

Cc1cc2nc(Cc3ccccc3)[nH]c2cc1C
inactive: [10] 102 % of control | [1] 105 % of control | [2] 94 % of control

Cc1ccc(C)c(NS(=O)(=O)c2ccc(Cl)cc2)c1
inactive: [11] 93 % of control | [12] 92 % of control

O=C(c1ccccc1)c1cc([N+](=O)[O-])cc([N+](=O)[O-])c1
inactive: [3] 97 % of control | [8] 91 % of control | [4] 89 % of control

Cc1ccc(Cl)cc1NC(=O)c1cccc(C(=O)Nc2cc(Cl)ccc2C)c1
inactive: [13] 96 % of control | [11] 93 % of control

NC(=O)NNc1ccc([N+](=O)[O-])cc1[N+](=O)[O-]
inactive: [10] 95 % of control | [1] 97 % of control | [2] 97 % of control

CCNC(C)(C)C(SSSC(c1cccs1)C(C)(C)NCC)c1cccs1 (configuration not stated)
inactive: [14] 100 % of control | [13] 94 % of control

CCCCC(CC)C(O)C1CCCCC1O (configuration not stated)
inactive: [11] 100 % of control | [12] 89 % of control

CCN(CC)CCCC#CCN1CCCC1
inactive: [14] 100 % of control | [13] 93 % of control | [11] 93 % of control

C=C1C(=O)OC2C1CCC(C)C1CCC(=O)OC12C (configuration not stated)
inactive: dose: 3.13 mg/kg/injection, schedule: Q01DX009 (ip), vehicle: Klucel (hydroxypropylcellulose) (HPC) 97 % of control | dose: 6.25 mg/kg/injection, schedule: Q01DX009 (ip), vehicle: Klucel (hydroxypropylcellulose) (HPC) 103 % of control | [15] 100 % of control | [14] 101 % of control

CC(=O)c1ccc(Oc2ccc(/C(C)=N\N=C(N)N)cc2)cc1
inactive: [10] 95 % of control | [1] 92 % of control

CCN(CC)CCCC(C)Nc1cc(/C=C/c2ccc(Cl)cc2)nc2cc(N(C)C)ccc12 (configuration not stated)
inactive: [15] 97 % of control

Cc1ncc([N+](=O)[O-])n1CCSC(N)=O
inactive: [10] 97 % of control and 99 % of control | [1] 95 % of control and 102 % of control | [2] 101 % of control | [3] 97 % of control and 101 % of control | [8] 91 % of control and 96 % of control | [4] 92 % of control

Cc1cc(=O)n2c3c(c4c(cc13)c(CN(C)C)cc(=O)n4C)OC2
inactive: [9] 103 % of control | [10] 101 % of control | [1] 113 % of control | [2] 117 % of control

CCCCCCCCCCCCCCCCCCNC(=O)Nc1ccc(C(C)C)cc1
inactive: [5] 86 % of control | [6] 86 % of control and 89 % of control

CN(C1=NS(=O)(=O)N=C(N(C)c2ccccc2)O1)c1ccccc1
inactive: [14] 101 % of control | [13] 108 % of control | [11] 96 % of control | [12] 93 % of control | dose: 400.0 mg/kg/injection, schedule: Q01DX009 (ip), vehicle: Klucel (hydroxypropylcellulose) (HPC) 87 % of control
